Source: US6407248B1, “α-unsaturated amines, their production and use” (Takeda Chemical Industries, Ltd., priority 1987, dated 2002)

system: not given; assay: not given; conditions: not given

| SMILES | melting point |
| --- | --- |
| O=[N+]([O-])C=C(NCc1cccnc1)NCc1cccnc1 | 141 to 143 °C |
| O=[N+]([O-])C=C(NCc1cccnc1)N1CCOCC1 | 102 to 103 °C |
| O=[N+]([O-])C=C(NCc1cccnc1)Nc1ccccc1 | 217 to 218 °C |
| CSC(=C[N+](=O)[O-])NCc1cccnc1 | 129 to 130 °C |

Continued, values first:

| melting point | SMILES |
| --- | --- |
| 164 to 165 °C | O=[N+]([O-])C=C(NCc1cccnc1)NCC(F)(F)F |
| 110 to 112 °C | CCCCNC(=C[N+](=O)[O-])NCc1cccnc1 |
| 161 to 163 °C | O=[N+]([O-])C=C(NCCO)NCc1cccnc1 |
| 93 to 94 °C | CCCSCCNC(=C[N+](=O)[O-])NCc1cccnc1 |
| 148 to 150 °C | CC(C)NC(=C[N+](=O)[O-])NCc1cccnc1 |
| 97 to 98 °C | CCCCCNC(=C[N+](=O)[O-])NCc1cccnc1 |
| 177 to 178 °C (dec.) | NC(=C[N+](=O)[O-])NCc1cccnc1 |
| 96 to 98 °C | COC(CNC(=C[N+](=O)[O-])NCc1cccnc1)OC |

system: Brown Planthoppers (Nilaparvata lugens); assay: Effect against brown planthoppers (foliar spray on rice seedlings); assay type: in vivo; conditions: Nilaparvata lugens, foliar, 168 h, read-out: % Mortality after 7 days
Description: Effect Against Brown Planthoppers (Nilaparvata lugens)
An emulsifiable concentrate of the compound of the invention, prepared in the same manner as Example 112 below, was diluted with water to a concentration of 500 ppm and sprayed over the stems and leaves of rice seedlings in the 2-leaf stage at the rate of 10 ml per paper pot. Water was put in test tubes and the treated rice seedlings were placed therein. Then, 10 brown planthopper larvae were released in each tube, which was then capped with an aluminum cap. The test tubes were maintained in an incubator at 25° C. and the dead insects were counted 7 days after release. The % mortality was calculated using the following formula. [formula]

| SMILES | mortality at 500 µg/mL [%] |
| --- | --- |
| CN(C)C(=C[N+](=O)[O-])N(C=O)Cc1ccc(Cl)nc1 [Compound 113, 1-[N-(6-Chloro-3-pyridylmethyl)-N-formyl]amino-1-dimethylamino-2-nitroethylene] | 100 |
| CN(C)C(=C[N+](=O)[O-])NCc1ccc(Br)nc1 [Compound 127, 1-N-(6-Bromo-3-pyridylmethyl)amino-1-dimethylamino-2-nitroethylene] | 100 |
| C[Si](C)(C)CNC(=C[N+](=O)[O-])NCc1cccnc1 [Compound 17, 1-(3-Pyridylmethyl)amino-1-(trimethylsilylmethyl)amino-2-nitroethylene] | 100 |

same assay, conditions: Nilaparvata lugens, foliar, 168 h; emulsifiable concentrate diluted with water to 500 ppm, sprayed on rice seedlings (2-leaf stage), 10 ml per paper pot; 10 larvae per tube; 25° C.; dead insects counted 7 days after release; read-out: % Mortality after 7 days

| SMILES | mortality at 500 µg/mL [%] |
| --- | --- |
| CNC(=C[N+](=O)[O-])Nc1ccc(Cl)nc1 [Compound 96, 1-(6-Chloro-3-pyridyl)amino-1-methylamino-2-nitro-ethylene] | 100 |
| CCCCN(C(=C[N+](=O)[O-])NC)c1ccc(Cl)nc1 [Compound 92, 1-[N-n-Butyl-N-(6-chloro-3-pyridyl)]amino-1-methyl-amino-2-nitroethylene] | 100 |

same assay, conditions: emulsifiable concentrate diluted with water to 500 ppm, sprayed on rice seedlings (2-leaf stage), 10 ml per paper pot; 10 larvae per tube; 25° C.; dead insects counted 7 days after release

| SMILES | % Mortality after 7 days [%] |
| --- | --- |
| CNC(=C[N+](=O)[O-])N(CCOC)Cc1cccnc1 [Compound 35, 1-Methyl-amino-1-[N-(2-methoxyethyl)-N-(3-pyridylmethyl)]amino-2-nitroethylene] | 100 |
